Counter-ions that a name gives are not always drawn.
target: T1, TLR7/NFKb HEK cells (Homo sapiens, UniProt Q9NYK1); test: HEK Cell Assay (TLR7/NFKb reporter, Steady-Glo luciferase readout); type: cell-based; conditions: 30 min compound preincubation, then R*48 agonist for 5 hours, read-out: Potency
T1 construct: expressed in transfected cells; host or cells: HEK cells (TLR7/NFKb reporter line)
T1 sequence (Q9NYK1 27-1049): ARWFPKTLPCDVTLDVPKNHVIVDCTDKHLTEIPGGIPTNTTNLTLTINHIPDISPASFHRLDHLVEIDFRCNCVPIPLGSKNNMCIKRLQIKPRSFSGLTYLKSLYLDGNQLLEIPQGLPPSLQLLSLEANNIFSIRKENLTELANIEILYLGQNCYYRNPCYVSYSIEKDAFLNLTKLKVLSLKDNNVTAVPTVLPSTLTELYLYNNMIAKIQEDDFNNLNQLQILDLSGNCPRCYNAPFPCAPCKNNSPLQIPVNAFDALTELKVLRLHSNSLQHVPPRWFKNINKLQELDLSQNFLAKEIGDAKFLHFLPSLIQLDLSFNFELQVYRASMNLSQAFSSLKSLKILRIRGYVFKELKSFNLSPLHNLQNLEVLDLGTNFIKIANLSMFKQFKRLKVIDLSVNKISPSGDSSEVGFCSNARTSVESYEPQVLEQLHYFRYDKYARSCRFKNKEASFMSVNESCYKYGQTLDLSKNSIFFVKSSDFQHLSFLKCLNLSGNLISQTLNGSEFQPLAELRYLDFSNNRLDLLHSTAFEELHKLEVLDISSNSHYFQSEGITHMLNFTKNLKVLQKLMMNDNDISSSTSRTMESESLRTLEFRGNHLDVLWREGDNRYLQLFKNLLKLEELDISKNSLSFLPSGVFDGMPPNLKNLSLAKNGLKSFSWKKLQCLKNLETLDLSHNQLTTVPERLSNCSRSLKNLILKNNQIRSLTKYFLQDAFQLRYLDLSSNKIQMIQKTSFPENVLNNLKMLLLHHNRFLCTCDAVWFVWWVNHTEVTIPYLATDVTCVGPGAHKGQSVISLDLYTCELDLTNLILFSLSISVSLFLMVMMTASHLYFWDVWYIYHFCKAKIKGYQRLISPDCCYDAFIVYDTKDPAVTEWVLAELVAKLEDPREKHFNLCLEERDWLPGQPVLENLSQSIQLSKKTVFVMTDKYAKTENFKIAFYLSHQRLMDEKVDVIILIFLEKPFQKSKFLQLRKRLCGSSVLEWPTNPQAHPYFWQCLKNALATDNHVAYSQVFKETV
How it was run: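 Steady-Glo luminescence after 5 h stimulation with R*48 agonist, following 30 min compound preincubation. Assay run in HEK cells carrying a TLR7/NFKb luciferase reporter, plated at 5000 cells/well and grown 24 h at 37° C (10% CO2) before treatment.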

Structure (SMILES)	IC50
C[C@H]1C[C@@H](NC(=O)CC2CN(C)C2)CN(c2ccc(C(F)F)c3ncccc23)C1 [Compound 364, N-[(3R,5S)-1-[8-(difluoromethyl)quinolin-5-yl]-5-methylpiperidin-3-yl]-2-(1-methylazetidin-3-yl)acetamide]	< 1 µM
Cc1ncc(N2C[C@@H](C)C[C@@H](NC(=O)CC3CCN(C)C3)C2)c2cccnc12 (stereo partly drawn) [Compound 560, N-[(3R,5S)-5-Methyl-1-(8-methyl-[1,7]naphthyridin-5-yl)-piperidin-3-yl]-2-(1-methyl-pyrrolidin-3-yl)-acetamide]	< 1 µM
C[C@H]1C[C@@H](NC(=O)C2CCN(C)C2)CN(c2ccc(C#N)c3nccnc23)C1 (stereo partly drawn) [Compound 236, N-[(3R,5S)-1-(8-cyanoquinoxalin-5-yl)-5-methylpiperidin-3-yl]-1-methylpyrrolidine-3-carboxamide]	< 1 µM
CC(O)C(=O)N[C@@H]1C[C@H](C)CN(c2ccc(C#N)c3nccnc23)C1 (stereo partly drawn) [Compound 265, N-[(3R,5S)-1-(8-cyanoquinoxalin-5-yl)-5-methylpiperidin-3-yl]-2-hydroxypropanamide]	< 1 µM
C[C@H]1C[C@@H](NC(=O)CN2CCCN(C)CC2)CN(c2ccc(C#N)c3nccnc23)C1 [Compound 276, N-[(3R,5S)-1-(8-cyanoquinoxalin-5-yl)-5-methylpiperidin-3-yl]-2-(4-methyl-1,4-diazepan-1-yl)acetamide]	< 1 µM
C[C@H]1C[C@@H](NC(=O)[C@H](C)N)CN(c2ccnc3nccnc23)C1 [Compound 27, (S)-2-amino-N-((3R,5S)-5-methyl-1-(pyrido[2,3-b]pyrazin-8-yl)piperidin-3-yl)propanamide]	1 to 10 µM
C[C@@H]1CN(c2ccc(C#N)c3nccnc23)C[C@H](CN2CCC(N3CCCCC3)CC2)O1 [Compound 59, 8-((2S,6R)-2-(1,4′-bipiperidin-1′-ylmethyl)-6-methylmorpholino)quinoxaline-5-carbonitrile]	< 1 µM
C[C@H]1C[C@@H](NC(=O)CC(O)C(C)(C)C)CN(c2ccc(C#N)c3nccnc23)C1 (single isomer, unassigned) [Compound 147]	< 1 µM
C[C@H]1C[C@@H](NC(=O)CN2CCCN(C)CC2)CN(c2ccc(C(F)F)c3ncccc23)C1 [Compound 314, N-[(3R,5S)-1-[8-(difluoromethyl)quinolin-5-yl]-5-methylpiperidin-3-yl]-2-(4-methyl-1,4-diazepan-1-yl)acetamide]	< 1 µM
CC1CC(N)CN(c2ccc(F)c3nccnc23)C1 (single isomer, unassigned) [Compound 339]	< 1 µM
C[C@H]1C[C@@H](NC(=O)[C@H](N)CO)CN(c2ccnc3nccnc23)C1 [Compound 107, (2R)-2-amino-3-hydroxy-N-[(3R,5S)-5-methyl-1-[pyrido[2,3-b]pyrazin-8-yl]piperidin-3-yl]propanamide]	> 10 µM
C[C@H]1C[C@@H](NC(=O)C(N)C(F)(F)F)CN(c2ccc(C(N)=O)c3ncccc23)C1 (single isomer, unassigned) [Compound 184]	> 10 µM
CC1(C)CCN(CC(=O)N[C@@H]2C[C@H](C(F)(F)F)CN(c3ccc(C#N)c4ncccc34)C2)C1 [Compound 577, N-[(3R,5S)-1-(8-Cyano-quinolin-5-yl)-5-trifluoromethyl-piperidin-3-yl]-2-(3,3-dimethyl-pyrrolidin-1-yl)-acetamide]	< 1 µM
C[C@H]1C[C@@H](NC(=O)CC(C)(C)CN)CN(c2ccc(C(F)(F)F)c3nccnc23)C1 [Compound 301, 4-amino-3,3-dimethyl-N-[(3R,5S)-5-methyl-1-[8-(trifluoromethyl)quinoxalin-5-yl]piperidin-3-yl]butanamide]	< 1 µM
N#Cc1ccc(N2CC(NC(=O)CC3(N)CCCCC3)CC(C(F)(F)F)C2)c2cccnc12 (single isomer, unassigned) [Compound 498]	< 1 µM
Cc1ncc(N2C[C@@H](C)C[C@@H](NC(=O)[C@@H](O)C3CC3)C2)c2cccnc12 [Compound 559, (S)-2-Cyclopropyl-2-hydroxy-N-[(3R,5S)-5-methyl-1-(8-methyl-[1,7]naphthyridin-5-yl)-piperidin-3-yl]-acetamide]	1 to 10 µM

Structure (SMILES)	IC50
C[C@H]1C[C@@H](NC(=O)CN2CCCN(C)CC2)CN(c2ccc(C(F)(F)F)c3nccnc23)C1 [Compound 362, 2-(4-methyl-1,4-diazepan-1-yl)-N-[(3R,5S)-5-methyl-1-[8-(trifluoromethyl)quinoxalin-5-yl]piperidin-3-yl]acetamide]	< 1 µM
C[C@H]1C[C@@H](NC(=O)[C@@H](N)Cc2cccnc2)CN(c2ccc(C#N)c3nccnc23)C1 [Compound 116, (2S)-2-amino-N-[(3R,5S)-1-(8-cyanoquinoxalin-5-yl)-5-methylpiperidin-3-yl]-3-(pyridin-3-yl)propanamide]	< 1 µM
N#Cc1ccc(N2CC(N)CC(C(F)(F)F)C2)c2cccnc12 (single isomer, unassigned) [Compound 72]	< 1 µM
C[C@H]1C[C@@H](NC(=O)Cn2cccn2)CN(c2ccnc3nccnc23)C1 [Compound 170, N-[(3R,5S)-5-methyl-1-[pyrido[2,3-b]pyrazin-8-yl]piperidin-3-yl]-2-(1H-pyrazol-1-yl)acetamidw]	> 10 µM
C[C@H]1C[C@@H](NC(=O)CNC(C)(C)C)CN(c2ccc(C#N)c3nccnc23)C1 [Compound 142, 2-(tert-butylamino)-N-[(3R,5S)-1-(8-cyanoquinoxalin-5-yl)-5-methylpiperidin-3-yl]acetamide]	< 1 µM
O=C(NC1CCN(CC2CC2)C1)C1CCN(c2ccc(C(F)(F)F)c3ncccc23)CC1 (single isomer, unassigned) [Compound 444]	< 1 µM
COc1ccc(C(=O)NCC2CCN(c3ccnc4nccnc34)CC2)cc1OC [Compound 391, 3,4-Dimethoxy-N-(1-pyrido[2,3-b]pyrazin-8-yl-piperidin-4-ylmethyl)-benzamide]	> 10 µM
O=C(CN1CCC1)NCC1CCN(c2ccnc3nccnc23)CC1 [Compound 402, 2-Azetidin-1-yl-N-(1-pyrido[2,3-b]pyrazin-8-yl-piperidin-4-ylmethyl)-acetamide]	1 to 10 µM
C[C@H]1C[C@@H](NC(=O)C(N)C(F)(F)F)CN(c2ccc(C#N)c3nccnc23)C1 (single isomer, unassigned) [Compound 113, hydrochloride]	< 1 µM
C[C@@H]1C[C@H](CN2CCC(N3CCOCC3)CC2)CN(c2ccc(C(F)(F)F)c3ncccc23)C1 (relative stereo) [Compound 535, cis-5-[3-Methyl-5-(4-morpholin-4-yl-piperidin-1-ylmethyl)-piperidin-1-yl]-8-trifluoromethyl-quinoline]	< 1 µM
CC(C)[C@@H](N)C(=O)N[C@@H]1C[C@H](C)CN(c2ccc(C#N)c3nccnc23)C1 [Compound 102, (2R)-2-amino-N-[(3R,5S)-1-(8-cyanoquinoxalin-5-yl)-5-methylpiperidin-3-yl]-3-methylbutanamide]	< 1 µM
C[C@H]1C[C@@H](NC(=O)CC(F)(F)F)CN(c2ccc(C#N)c3nccnc23)C1 [Compound 111, N-[(3R,5S)-1-(8-cyanoquinoxalin-5-yl)-5-methylpiperidin-3-yl]-3,3,3-trifluoropropanamide]	< 1 µM
C[C@H]1C[C@@H](NC(=O)N2C[C@@H](F)[C@@H](F)C2)CN(c2ccc(C(F)(F)F)c3ncccc23)C1 [Compound 583, (3R,4S)-3,4-Difluoro-pyrrolidine-1-carboxylic Acid [(3R,5S)-5-methyl-1-(8-trifluoromethyl-quinolin-5-yl)-piperidin-3-yl]-amide]	1 to 10 µM
C[C@H]1C[C@@H](NC2CCN(C)C2=O)CN(c2ccc(C#N)c3nccnc23)C1 (single isomer, unassigned) [Compound 124]	< 1 µM
C[C@H]1C[C@@H](NC(=O)CO)CN(c2ccc(C(F)(F)F)c3ncccc23)C1 [Compound 240, 2-hydroxy-N-[(3R,5S)-5-methyl-1-[8-(trifluoromethyl)quinolin-5-yl]piperidin-3-yl]acetamide]	< 1 µM
CCN(CC)C(=O)CCC(=O)N[C@@H]1C[C@H](C(F)(F)F)CN(c2ccc(C#N)c3ncccc23)C1 [Compound 579, N-[(3R,5S)-1-(8-Cyano-quinolin-5-yl)-5-trifluoromethyl-piperidin-3-yl]-N′,N′-diethyl-succinamide]	1 to 10 µM
